Legend:
[1] = LogD7.4 by low-volume octanol/PBS shake-flask method; format: physicochemical; details: n-octanol/PBS; octanol-water partition coefficient, shake-flask method at pH 7.4
Description: Distribution ratios (LogD7.4) were determined by a low-volume octanol/PBS shake-flask method. Briefly, saturated solutions of octanol and PBS were prepared by mixing equal volumes of n-octanol and PBS (pH 7.4) before being left for three days. The octanol and PBS phases were then carefully separated and left to stand for at least 24 h. Stock solutions (0.1–0.5 mM) of each compound were prepared in octanol saturated with PBS. The stock solutions were diluted with octanol saturated with PBS containing and inter-assay control (acridone) to a final compound concentration of 50 μM. Aliquots (450 μL) were then taken in triplicate, and 450 μL of PBS saturated with octanol was added into amber tubes. The tubes were then sealed in parafilm and rotated for 90 min at 30 rpm to equilibrate. After centrifugation (15,000× g, 5 min, 20°C) the octanol and PBS phases were separated into different tubes and the octanol phase diluted with methanol (1:5 v/v). Both phases were analyzed by HPLC (diode-array detector at 364 ± 10 nm) by injecting 50 μL of the PBS phase and 15 μL of the diluted octanol phase. The results were then expressed as the log ratio of the peak areas obtained from the octanol and PBS phases corrected for dilution and injection volume.

[2] = test system: HCT116 cells expressing E. coli NfsA nitroreductase (NfsA_Ec); assay: Low cell density anti-proliferative (IC50) assay, HCT116 NfsA_Ec vs HCT116 WT; format: cell-based; details: aerobic, five days regrowth; for IC50: Escherichia coli, HCT-116, four hour drug exposure
Description: (§1) Next, we evaluated the compounds for activity with the major nitroreductase from E. coli, NfsA (NfsA_Ec), or the human aldo-keto reductase AKR1C3, using a low cell density anti-proliferative (IC50) assay (Figure 2). The sensitivity of HCT116 wild-type (WT) cells and HCT116 cells over-expressing either NfsA_Ec or AKR1C3 was examined under aerobic conditions.
(§2) The anti-proliferative IC50 was determined as the concentration of prodrug required for 50% inhibition of cell growth, following drug exposure for four hours, then five days regrowth in the absence of drug. Assays were performed under oxic or anoxic conditions as described previously, the latter by using a 5% H2/palladium catalyst scrubbed Bactron anaerobic chamber (Sheldon Manufacturing, Cornelius, OR, USA) to achieve severe anoxia (<10 ppm O2 gas phase) during prodrug exposure.
Figure 2 In vitro anti-proliferative activity of the novel lipophilic analogue series in HCT116 cells expressing AKR1C3 and E. coli NfsA (NfsA_Ec). IC50 values were determined as the concentration of drug required to inhibit cell growth by 50% of untreated controls following four hour drug exposure, with washing and regrowth for five days. Respective IC50 ratios (WT:AKR1C3 or WT:NfsA_Ec) are indicated above the bars for each compound. TEXT PRINTED IN THE PICTURE: PR-104A: HCT116 AKR1C3: 84; HCT116 NfsA_Ec: 2680 | 1: HCT116 AKR1C3: 1.8; HCT116 NfsA_Ec: 242 | 2: HCT116 AKR1C3: 1.6; HCT116 NfsA_Ec: 1431 | 3: HCT116 AKR1C3: 2.3; HCT116 NfsA_Ec: 913 | 4: HCT116 AKR1C3: 3.3; HCT116 NfsA_Ec: 594 | 5: HCT116 AKR1C3: 3.3; HCT116 NfsA_Ec: 152 | 6: HCT116 AKR1C3: 2.4; HCT116 NfsA_Ec: 741 | 7: HCT116 AKR1C3: 3.2; HCT116 NfsA_Ec: 174 | 8: HCT116 AKR1C3: 4.9; HCT116 NfsA_Ec: 81 | 9: HCT116 AKR1C3: 3.4; HCT116 NfsA_Ec: 147 DOUBTS OF THE COPYIST ABOUT THIS PICTURE: All values: the picture prints no measure or unit for the grey numbers above the blue and red bars. […] Each is given only with the cell line of the bar it stands over, as named in the picture's key.

[3] = test system: 97% HCT116 WT/3% HCT116 NfsA_Ec MCLs; assay: 3D multicellular layer (MCL) bystander assay, 97% HCT116 WT/3% HCT116 NfsA_Ec; format: cell-based; details: 10 µM prodrug, five hours
From the text: We then examined our compounds in a high cell density, 3D multi-cellular layer (MCL) assay in order to determine tissue penetration capacity of the active metabolite(s) and the potential for an efficient bystander effect. Mixed MCLs consisting of a small percentage HCT116 NfsA_Ec cells (3%) in the presence of HCT116 WT cells (97%) were used as a robust screen for efficient bystander cell kill. Here, active cytotoxic metabolites can diffuse out of the minority NfsA_Ec ‘prodrug-activating’ cell population into the WT ‘target’ population, causing death of cells that would not normally be sensitive to that concentration of prodrug.
(§3) Multicellular layers (MCLs) were grown, and bystander effect assays were performed as previously reported.
(§4) Figure 3 Lipophilic structure–activity relationship for NfsA_Ec in three dimensions. (A) Plating efficiency in 100% HCT116 WT and 97% HCT116 WT/3% HCT116 NfsA_Ec MCLs exposed to 10 µM prodrug for five hours before dissociation and plating to determine clonogenic survival. (B) Correlation between Log cell kill and LogD7.4. R = 0.63, R^2 = 0.40. Log cell kill = Log CS (control)–Log CS (treated), where CS is the number of clonogenic survivors per MCL.

100% HCT116 AKR1C3 MCLs = assay: 3D multicellular layer (MCL) assay, 100% HCT116 AKR1C3; format: cell-based, human; details: 10 µM prodrug, five hours
Description: Similar to the 3D NfsA_Ec screen, increased lipophilicity also tracked with increased LCK in 100% AKR1C3-expressing MCLs (R = 0.78, R^2 = 0.61). […] These three lead compounds were taken forward into in vivo studies.
as §3
as §4, with “4” for “3”, “AKR1C3” for “NfsA_Ec”, “100%” for “97%”, “AKR1C3” for “WT/3% HCT116 NfsA_Ec”, “0.78,” for “0.63,”, “0.61.” for “0.40.”

[4] = test system: H1299 cells expressing E. coli NfsA; assay: Anti-proliferative IC50 assay, H1299 cells expressing E. coli NfsA; format: cell-based; details: for IC50: Escherichia coli, NCI-H1299, H1299 NfsA_Ec, 4 hour drug exposure, regrowth for five days; for WT:NfsA_Ec IC50 ratio: H1299 WT vs H1299 NfsA_Ec
Description: as §2
(§5) Supplementary Table S2. In vitro anti-proliferative activity of the three lead prodrug compounds in H1299 cells expressing E. coli NfsA. IC50 values were determined as the concentration of drug required to inhibit cell growth by 50% of untreated controls following 4 hour drug exposure, with washing and regrowth for five days.
(§6) Compound WT NfsA_Ec Ratio

H1299 WT cells = assay: Anti-proliferative IC50 assay, H1299 WT cells; format: cell-based; details: Homo sapiens, NCI-H1299, 4 hour drug exposure, regrowth for five days
Description: as §2, §5, §6

[5] = test system: HCT116 cells over-expressing AKR1C3; assay: Low cell density anti-proliferative (IC50) assay, HCT116 AKR1C3 vs HCT116 WT; format: cell-based, human; details: HCT116 WT vs HCT116 AKR1C3, aerobic, four hour exposure, five days regrowth
Description: as §1, §2
Figure 2 In vitro anti-proliferative activity of the novel lipophilic analogue series in HCT116 cells expressing AKR1C3 and E. coli NfsA (NfsA_Ec). IC50 values were determined as the concentration of drug required to inhibit cell growth by 50% of untreated controls following four hour drug exposure, with washing and regrowth for five days. Respective IC50 ratios (WT:AKR1C3 or WT:NfsA_Ec) are indicated above the bars for each compound. […]

[6] = parameters: method as in PMID 34959631; details: mice, PR-104 at 388 µmol/kg (human equivalent dose); cited from earlier work
[7] = target: T1, purified His6-tagged NfsA_Ec (Escherichia coli, UniProt P17117); parameters: method as in earlier work; details: apparent, 250 µM NADPH; cited from earlier work
T1 construct: His6; made in house
T1 sequence (P17117 1-240): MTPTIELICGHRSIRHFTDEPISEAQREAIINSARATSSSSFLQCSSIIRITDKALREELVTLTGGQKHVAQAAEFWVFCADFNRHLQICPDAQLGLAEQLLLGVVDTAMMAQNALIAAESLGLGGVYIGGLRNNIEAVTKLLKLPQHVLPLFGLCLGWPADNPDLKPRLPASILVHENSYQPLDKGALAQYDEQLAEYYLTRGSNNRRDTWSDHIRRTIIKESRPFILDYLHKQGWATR

Compound	logD at 90 min [1]	IC50 [2] [nM]	Log cell kill (LCK) [3]	Log cell kill (LCK) (100% HCT116 AKR1C3 MCLs)	IC50 [4] [nM]	WT:NfsA_Ec IC50 ratio [4] [fold]	IC50 (H1299 WT cells) [nM]	WT:NfsA_Ec IC50 ratio ([2]; HCT116 WT vs HCT116 NfsA_Ec, four hour exposure) [fold]	WT:AKR1C3 IC50 ratio [5] [fold]	Plasma AUCfree of PR-104A [6] [µM-h]	Km [7] [µM]	kcat [7] [s⁻¹]	melting point [°C]
CCCS(=O)(=O)c1cc([N+](=O)[O-])c(C(=O)N(C)CCO)cc1N(CCBr)CCBr [Compound 9]	2.1	1000	1.6										
CS(=O)(=O)c1cc([N+](=O)[O-])c(C(=O)NCCO)cc1N(CCBr)CCBr [Compound 1, 5-(Bis(2-bromoethyl)amino)-N-(2-hydroxyethyl)-4-(methylsulfonyl)-2-nitrobenzamide]	1			≤ 0.11	1180 ± 40	141	166000 ± 26000						
CS(=O)(=O)OCCN(CCBr)c1c(C(=O)NCCO)cc([N+](=O)[O-])cc1[N+](=O)[O-] [PR-104A, reference compound]		30			46 ± 3	2848	131000 ± 9900	2680	84	38	100 ± 11	12 ± 1.4	
CN(CCO)C(=O)c1cc(N(CCBr)CCBr)c(S(C)(=O)=O)cc1[N+](=O)[O-] [Compound 2, 5-(Bis(2-bromoethyl)amino)-N-(2-hydroxyethyl)-N-methyl-4-(methylsulfonyl)-2-nitrobenzamide]	1.2			≤ 0.11	170 ± 30	1029	175000 ± 3500						138 to 140
CCCN(CCO)C(=O)c1cc(N(CCBr)CCBr)c(S(C)(=O)=O)cc1[N+](=O)[O-] [Compound 4]	2.1	170	3.06										
